In ChEMBL document CHEMBL3868599, “Strategy for designing selective α-l-rhamnosidase inhibitors: Synthesis and biological evaluation of l-DMDP cyclic isothioureas” (Bioorg Med Chem, 2017) one finds IC50 and inhibition data, which are given here for ten compounds.

Biological target in one assay: not listed separately
In words: Inhibition of Penicillium decumbens alpha-L-rhamnosidase using p-nitrophenyl-glycoside as substrate by spectrophotometric method.
Take `OC[C@H]1[C@H](O)[C@@H](O)[C@@H]2CS/C(=N/Cc3ccc(F)cc3)N12`: the IC50 (commonly the concentration that inhibits the measured activity by half) was determined as 1.8 µM.
On the same count and under the same terms, to `COc1ccc(C/N=C2/SC[C@H]3[C@H](O)[C@@H](O)[C@H](CO)N23)cc1` belongs 1.6 µM; to `OC[C@H]1[C@H](O)[C@@H](O)[C@@H]2CS/C(=N/Cc3ccc(Cl)cc3Cl)N12`, 0.8 µM; to `OC[C@H]1[C@H](O)[C@@H](O)[C@@H]2CS/C(=N/Cc3ccccc3Cl)N12`, 2.5 µM.
Still for that read-out and setting: to `OC[C@H]1[C@H](O)[C@@H](O)[C@@H]2CS/C(=N/Cc3cc(Cl)cc(Cl)c3)N12` belongs 0.7 µM.
Compound `OC[C@H]1[C@H](O)[C@@H](O)[C@@H]2CS/C(=N/Cc3cccc(Cl)c3)N12` displayed a half-inhibitory concentration (IC50) of 0.7 µM.
Still for that read-out and setting: the figure for `Cc1ccc(C/N=C2/SC[C@H]3[C@H](O)[C@@H](O)[C@H](CO)N23)cc1` is 1.2 µM.
`OC[C@H]1[C@H](O)[C@@H](O)[C@@H]2CS/C(=N/Cc3cc(Cl)c(Cl)c(Cl)c3)N12` gave an IC50 of 0.45 µM.
Same read-out and setting: the figure for `OC[C@H]1[C@H](O)[C@@H](O)[C@@H]2CS/C(=N/Cc3ccc(Cl)cc3)N12` is 0.89 µM.

For a further assay, the system named is Penicillium decumbens. The experiment in a line: Inhibition of Penicillium decumbens alpha-L-rhamnosidase at 1000 uM using p-nitrophenyl-glycoside as substrate by spectrophotometric method.
On to `OC[C@H]1[C@@H](O)[C@H](O)[C@@H]2CS/C(=N/Cc3ccc(Cl)c(Cl)c3)N12`, for which the inhibition (in general, how much of the control response was suppressed) was determined as 9.3%.
